Measurements taken from PMC11944513, “Investigation on Human Carbonic Anhydrase IX and XII Inhibitory Activity and A549 Antiproliferative Activity of a New Class of Coumarinamides” (Pharmaceuticals, 2025).

Tests used:
[1] = system: normal bronchial epithelial cells (BEAS-2B); test: cell viability (MTT assay), BEAS-2B; type: cell-based, human; details: for IC50: Homo sapiens, BEAS-2B, 48 h exposure, nonlinear regression, predictive estimates
Description: Human bronchial epithelial (BEAS-2B; CRL-3588) and human lung carcinoma (A549; CCL-185) cell lines were obtained from ATCC®. BEAS and A549 cells were maintained in complete RPMI 1640 (Merck, Darmstadt, Germany) at 37 °C and 5% CO2. The medium was supplemented with 10% heat-inactivated fetal bovine serum (FBS), 1% penicillin/streptomycin and 1% sodium pyruvate.
(§1) Cells were seeded at different densities according to the different experimental techniques performed (MTT assay and cell cycle analysis) and left to adhere for 24 h. Next, the medium was removed, and cells were treated with tested compounds, dissolved in dimethyl sulfoxide (DMSO) to achieve concentrations ranging from 0 µM (untreated control = CTRL) to 150 µM. The final DMSO concentration was kept below 0.3%. Cell viability was evaluated at up to 72 h post-treatment. Images were acquired 48 h after treatments by means of a light phase-contrast microscope equipped with a camera (Leica). Images were acquired and analyzed by the Leica Application Suite LAS EZ version 3.4 (Leica, Wetzlar, Germany).
(§2) BEAS and A549 cells were seeded in 96-well culture-treated plates (Falcon®, Corning Incorporated, Brooklyn, NY, USA) at a density of 0.5 × 10^4 cells/well. Untreated cells were set as the experimental control, representing 100% of cell viability. Exposure times varied from 24 up to 72 h. At the established time points (24, 48 and 72 h), the exposure medium was replaced with fresh medium containing 0.5 mg/mL 3-(4,5-dimethylthiazol-2-yl)-2,5-diphenyltetrazolium bromide (MTT) (Merck, Darmstadt, Germany) and processed as previously reported. The optical density in each well was measured at a wavelength of 540 nm using a spectrophotometer (Thermo Fisher Scientific, Waltham, MA, USA). Each experiment was performed in triplicate per experimental conditions (n = 3).

[2] = system: bronchial adenocarcinoma cells (A549); test: cell viability (MTT assay), A549; type: cell-based, human; details: for IC50: Homo sapiens, A549, 48 h exposure, nonlinear regression, predictive estimates
Description: The medium was supplemented with 10% heat-inactivated fetal bovine serum (FBS), 1% penicillin/streptomycin and 1% sodium pyruvate.
as §1, with “Next, the medium was removed, and cells were treated with tested compounds, dissolved in dimethyl sulfoxide (DMSO) to achieve concentrations ranging from 0 µM (untreated control = CTRL) to 150 µM.” left out
as §2

h-CA I = h-CA I (Homo sapiens, UniProt P00915); test: stopped-flow CO2 hydrase assay, h-CA I
h-CA II = h-CA II (Homo sapiens, UniProt P00918); test: stopped-flow CO2 hydrase assay, h-CA II
h-CA IX = h-CA IX (Homo sapiens, UniProt Q16790); test: stopped-flow CO2 hydrase assay, h-CA IX; details: for selectivity on h-CA IX over h-CA XII (in words): comparison of Ki values
h-CA XII = h-CA XII (Homo sapiens, UniProt O43570); test: stopped-flow CO2 hydrase assay, h-CA XII
A549 cells [3] = test: cytotoxicity assay (LDH test); type: cell-based, human; details: 24 h; for cytotoxicity occurrence (LDH release): A549, 0–150 µM; for LDH released, fold increase respective to untreated cells: A549, 150 µM
Description: as §1
To assess cytotoxicity in A549 cells after their treatment with the tested compounds, the amount of lactate dehydrogenase released into the culture medium was quantified using the CytoTox 96 non-radioactive cytotoxicity assay (Promega, Madison, WI, USA) according to the manufacturer’s instructions. Cell supernatants were collected from the same cultures processed for the MTT assay after 24 h of treatment and the optical density values obtained were normalized to those measured from the MTT assay.

A549 cells [4] = test: cell cycle analysis (PI flow cytometry); type: cell-based, human; details: A549, 0–150 µM, 48 h; S phase cells increased vs untreated control
Description: as §1
[…] At each time point, cells were detached using StemPro™ Accutase™, pelleted by centrifugation, and fixed overnight at 4 °C in 70% v/v cold ethanol. After fixation, cells were processed as described elsewhere. The PI fluorescence was detected by a flow cytometer equipped with a 488 nm laser (CytoFlex flow cytometer, Beckman Coulter, CA, USA) in the FL-3 channel. A minimum of 10,000 events/sample were acquired and analyzed with the CytExpert Software, version 2.3 (Beckman Coulter, CA, USA), and the percentages of cells in the G1, S, or G2 phase of the cell cycle were calculated using the ModFit LT™ Software, version 5.0 (Verity Software House, Topsham, ME, USA).

Chain of h-CA I (P00915 whole entry): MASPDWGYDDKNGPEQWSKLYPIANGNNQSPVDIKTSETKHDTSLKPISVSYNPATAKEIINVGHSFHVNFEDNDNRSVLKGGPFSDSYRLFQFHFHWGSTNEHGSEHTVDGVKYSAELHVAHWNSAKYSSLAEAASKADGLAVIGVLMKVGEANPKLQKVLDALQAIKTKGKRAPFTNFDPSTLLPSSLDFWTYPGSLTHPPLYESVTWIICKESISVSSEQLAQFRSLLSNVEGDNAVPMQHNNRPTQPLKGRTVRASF
Chain of h-CA XII (O43570 25-354): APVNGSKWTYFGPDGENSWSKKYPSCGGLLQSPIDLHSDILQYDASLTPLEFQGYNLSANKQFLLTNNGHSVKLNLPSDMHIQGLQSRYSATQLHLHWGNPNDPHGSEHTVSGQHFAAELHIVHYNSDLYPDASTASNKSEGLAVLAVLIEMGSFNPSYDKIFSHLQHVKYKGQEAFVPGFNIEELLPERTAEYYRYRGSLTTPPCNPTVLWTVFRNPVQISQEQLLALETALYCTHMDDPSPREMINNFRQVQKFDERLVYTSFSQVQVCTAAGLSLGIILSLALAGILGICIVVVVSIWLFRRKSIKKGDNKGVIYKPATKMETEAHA

| IC50 [2] | Ki (h-CA I) | Ki (h-CA II) | Ki (h-CA IX) | Ki (h-CA XII) | selectivity on h-CA XII over h-CA IX (h-CA XII; ratio of Ki values) | SMILES | IC50 [1] | SI (selectivity index, IC50 BEAS/IC50 A549 ratio) ([2]; 48 h) | selectivity on h-CA IX over h-CA XII (in words) (h-CA IX) | cytotoxicity occurrence (LDH release) (A549 cells [3]) | arrest of cell cycle progression (A549 cells [4]) | LDH released, fold increase respective to untreated cells (A549 cells [3]) | cell viability of BEAS cells ([1]; 1 µM, 48 h) | cell viability of A549 cells ([2]; 1 µM, 48 h) |
| --- | --- | --- | --- | --- | --- | --- | --- | --- | --- | --- | --- | --- | --- | --- |
| 108 ± 1.28 µM | > 100 µM | > 100 µM | 32.8 µM | 22.5 µM |  | COc1ccc(N2CCN(C(=O)c3cc4ccc(O)cc4oc3=O)CC2)cc1 [Compound 44, 7-Hydroxy-3-(4-(4-Methoxyphenyl)piperazine-1-Carbonyl)-2H-Chromen-2-One] | 203.5 ± 1.19 µM | 1.888 |  |  |  |  |  |  |
| 59.7 ± 1.07 µM | > 100 µM | > 100 µM | 7.5 µM | 55.8 µM |  | O=C(NCCc1cccc(Cl)c1)c1cc2ccc(O)cc2oc1=O [Compound 30, N-(3-Chlorophenethyl)-7-Hydroxy-2-Oxo-2H-Chromene-3-Carboxamide] | 87.4 ± 1.06 µM | 1.465 | good selectivity against h-CA IX over h-CA XII |  |  |  |  |  |
| 39.5 ± 1.06 µM | > 100 µM | > 100 µM | 46.2 µM | 21 µM |  | O=C(NCc1ccc(Cl)c(Cl)c1)c1cc2ccc(O)cc2oc1=O [Compound 23, N-(3,4-Dichlorobenzyl)-7-Hydroxy-2-Oxo-2H-Chromene-3-Carboxamide] | 73.4 ± 1.1 µM |  |  | None of the compounds administered displayed cytotoxicity | able to arrest cells at the G1/S checkpoint |  |  |  |
| 85.8 ± 1.13 µM | > 100 µM | > 100 µM | 33.7 µM | 8.8 µM |  | Cc1ccc(CNC(=O)c2cc3ccc(O)cc3oc2=O)cc1 [Compound 7, 7-Hydroxy-N-(4-Methylbenzyl)-2-Oxo-2H-Chromene-3-Carboxamide] | 157.8 ± 1.07 µM |  |  |  |  | ~2 fold |  |  |
| 248.2 ± 1.57 µM | > 100 µM | > 100 µM | 25.4 µM | 35.5 µM |  | Cc1ccccc1CNC(=O)c1cc2ccc(O)cc2oc1=O [Compound 5, 7-Hydroxy-N-(2-Methylbenzyl)-2-Oxo-2H-Chromene-3-Carboxamide] | 181.2 ± 1.2 µM | 0.730 |  |  |  |  |  |  |
| 55.9 ± 1.12 µM | > 100 µM | > 100 µM | 5.5 µM | 43.1 µM |  | O=C(NCCc1ccccc1Cl)c1cc2ccc(O)cc2oc1=O [Compound 29, N-(2-Chlorophenethyl)-7-Hydroxy-2-Oxo-2H-Chromene-3-Carboxamide] | 77.5 ± 1.08 µM | 1.386 | good selectivity against h-CA IX over h-CA XII |  |  |  |  |  |
|  | > 100 µM | > 100 µM | 42.2 µM | 7.5 µM |  | O=C(NCc1ccccc1)c1cc2ccc(O)cc2oc1=O [Compound 4, N-Benzyl-7-Hydroxy-2-Oxo-2H-Chromene-3-Carboxamide] | 344.9 ± 3.14 µM |  |  |  |  |  |  |  |
|  |  |  |  |  |  | COc1cccc2c1C(=O)c1c(O)c3c(c(O)c1C2=O)C[C@@](O)(C(=O)CO)C[C@@H]3O[C@H]1C[C@H](N)[C@H](O)[C@H](C)O1 [doxorubicin, reference compound] |  |  |  |  |  |  | dramatically decreased | dramatically decreased |
| 83.3 ± 1.08 µM | > 100 µM | > 100 µM | 22 µM | 84.1 µM |  | O=C(NCc1ccc(Cl)cc1Cl)c1cc2ccc(O)cc2oc1=O [Compound 22, N-(2,4-Dichlorobenzyl)-7-Hydroxy-2-Oxo-2H-Chromene-3-Carboxamide] | 95.8 ± 1.07 µM | 1.150 |  |  |  |  |  |  |
| 68.2 ± 1.11 µM | > 100 µM | > 100 µM | 53.8 µM | 9.1 µM |  | COc1ccc(CNC(=O)c2cc3ccc(O)cc3oc2=O)cc1 [Compound 9, 7-Hydroxy-N-(4-Methoxylbenzyl)-2-Oxo-2H-Chromene-3-Carboxamide] | 116 ± 1.22 µM |  |  |  |  | ~3 fold |  |  |
| 25.7 ± 1.14 µM | > 100 µM | > 100 µM | 22.6 µM | 8.4 µM |  | O=C(c1cc2ccc(O)cc2oc1=O)N1CCN(c2ccc(C(F)(F)F)cc2)CC1 [Compound 45, 3-(4-(4-Trifluoromethylphenyl)piperazine-1-Carbonyl)-7-Hydroxy-2H-Chromen-2-One] | 53.9 ± 1.07 µM | 2.096 |  |  |  |  |  |  |
| 90 ± 1.07 µM | > 100 µM | > 100 µM | 82.5 µM | 9.3 µM |  | Cc1cccc(CNC(=O)c2cc3ccc(O)cc3oc2=O)c1 [Compound 6, 7-Hydroxy-N-(3-Methylbenzyl)-2-Oxo-2H-Chromene-3-Carboxamide] | 117.9 ± 1.08 µM | 1.309 |  |  |  |  |  |  |
| 156.9 ± 1.12 µM | > 100 µM | > 100 µM | 49.3 µM | 9.1 µM | ~5 fold | O=C(c1cc2ccc(O)cc2oc1=O)N1CCN(c2ccccc2)CC1 [Compound 32, 7-Hydroxy-3-(4-Phenylpiperazine-1-Carbonyl)-2H-Chromen-2-One] | 399.7 ± 1.68 µM | 2.547 |  |  |  |  |  |  |
| 50 ± 1.28 µM | > 100 µM | > 100 µM | 70.3 µM | 9.2 µM |  | Cc1ccc(N2CCN(C(=O)c3cc4ccc(O)cc4oc3=O)CC2)cc1C [Compound 38, 3-(4-(3,4-Dimethylphenyl)piperazine-1-Carbonyl)-7-Hydroxy-2H-Chromen-2-One] | 187.4 ± 1.27 µM | 3.747 |  | None of the compounds administered displayed cytotoxicity | able to arrest cells at the G1/S checkpoint |  |  |  |
| 32 ± 1.22 µM | > 100 µM | > 100 µM | 19.3 µM | 64.9 µM |  | O=C(NCc1ccccc1Cl)c1cc2ccc(O)cc2oc1=O [Compound 19, N-(2-Chlorobenzyl)-7-Hydroxy-2-Oxo-2H-Chromene-3-Carboxamide] | 40.7 ± 1.1 µM | 1.271 | about three times more active on h-CA IX |  |  |  |  |  |
|  | > 100 µM | > 100 µM | 85.2 µM | 63.8 µM |  | O=C(c1cc2ccc(O)cc2oc1=O)N1CCN(c2ccccc2[N+](=O)[O-])CC1 [Compound 40, 7-Hydroxy-3-(4-(2-Nitrophenyl)piperazine-1-Carbonyl)-2H-Chromen-2-One] |  |  |  |  |  |  |  |  |
